Assay results: patent publication US8012979B2, “Compounds and their uses 707” (AstraZeneca AB, priority 2007, dated 2011)

Molecular target: T1, human active recombinant p38α-6His tagged (Homo sapiens, UniProt Q16539)
T1 construct: 6His
Experiment: p38 Alpha Enzyme Assay (AlphaScreen, biotinylated-ATF2 substrate)
Type: biochemical
Settings: pre-incubated 4 hours at 37° C., reaction initiated with ATP; 0.5 nM enzyme; read-out: p38 pIC50 (converted)

T1 sequence (Q16539 whole entry): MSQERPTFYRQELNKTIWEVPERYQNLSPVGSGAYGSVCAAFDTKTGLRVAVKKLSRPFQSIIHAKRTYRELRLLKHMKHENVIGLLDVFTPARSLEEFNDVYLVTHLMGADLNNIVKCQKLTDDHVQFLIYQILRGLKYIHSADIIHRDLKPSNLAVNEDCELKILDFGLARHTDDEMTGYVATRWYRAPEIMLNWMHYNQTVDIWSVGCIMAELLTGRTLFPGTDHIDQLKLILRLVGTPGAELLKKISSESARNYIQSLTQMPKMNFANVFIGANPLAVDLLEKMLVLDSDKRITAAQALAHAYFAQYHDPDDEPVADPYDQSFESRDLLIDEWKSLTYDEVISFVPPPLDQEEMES

IC50 [nM] | Compound
1 | COc1ccc(Cn2ccc3cc(-c4cc(C(=O)NC5CC5)ccc4C)ccc3c2=O)cc1 [Example 17, N-Cyclopropyl-3-[2-(4-methoxy-benzyl)-1-oxo-1,2-dihydro-isoquinolin-6-yl]-4-methyl-benzamide]
0.251 | Cc1ccc(C(=O)NC2CC2)cc1-c1ccc2c(=O)n(Cc3ccc(C(=O)NS(C)(=O)=O)cc3)cc(CN3CCCN(C)CC3)c2c1 [Example 114, N-Cyclopropyl-4-methyl-3-(4-((4-methyl-1,4-diazepan-1-yl)methyl)-2-(4-(methylsulfonylcarbamoyl)benzyl)-1-oxo-1,2-dihydroisoquinolin-6-yl)benzamide]
0.0631 | Cc1c(F)cc(C(=O)NC2CC2)cc1-c1ccc2c(=O)n(CC3CC3)cc(CN3CCN(C)[C@@H](CO)C3)c2c1 [Example 87, (R)—N-Cyclopropyl-3-(2-(cyclopropylmethyl)-4-((3-(hydroxymethyl)-4-methylpiperazin-1-yl)methyl)-1-oxo-1,2-dihydroisoquinolin-6-yl)-5-fluoro-4-methylbenzamide]
10 | Cc1ccc(C(=O)NC2CC2)cc1-c1ccc2c(=O)n(Cc3ccccc3)cc(C(=O)N3CCN(CCO)CC3)c2c1 [Example 52, 3-(2-Benzyl-4-{[4-(2-hydroxyethyl)piperazin-1-yl]carbonyl}-1-oxo-1,2-dihydroisoquinolin-6-yl)-N-cyclopropyl-4-methylbenzamide]
0.501 | Cc1ccc(C(=O)NC2CC2)cc1-c1ccc2c(=O)n(Cc3ccc(C4CCNCC4)cc3)ccc2c1 [Example 8, N-Cyclopropyl-4-methyl-3-[1-oxo-2-(4-piperidin-4-yl-benzyl)-1,2-dihydro-isoquinolin-6-yl]-benzamide]
3.16 | Cc1ccc(C(=O)NC2CC2)cc1-c1ccc2c(=O)n(Cc3ccccc3)cc(C(=O)NCCN3CCCC3)c2c1 [Example 49, 2-Benzyl-6-{5-[(cyclopropylamino)carbonyl]-2-methylphenyl}-1-oxo-N-(2-pyrrolidin-1-ylethyl)-1,2-dihydroisoquinoline-4-carboxamide]
5.01 | Cc1ccc(C(=O)NC2CC2)cc1-c1ccc2c(=O)n(CC3CC3)cc(C(=O)N3CC[C@H](N)C3)c2c1 [Example 43, (S)-3-(4-(3-Aminopyrrolidine-1-carbonyl)-2-(cyclopropylmethyl)-1-oxo-1,2-dihydroisoquinolin-6-yl)-N-cyclopropyl-4-methylbenzamide]
2.51 | CNCCOc1cccc(Cn2ccc3cc(-c4cc(C(=O)NC5CC5)ccc4C)ccc3c2=O)c1 [Example 34, N-Cyclopropyl-4-methyl-3-(2-{3-[2-(methylamino)ethoxy]benzyl}-1-oxo-1,2-dihydroisoquinolin-6-yl)benzamide]
3.98 | Cc1ccc(C(=O)NC2CC2)cc1-c1ccc2c(=O)n(CC3CC3)cc(C(=O)N3CC[C@@H](N)C3)c2c1 [Example 37, (R)-3-(4-(3-Aminopyrrolidine-1-carbonyl)-2-(cyclopropylmethyl)-1-oxo-1,2-dihydroisoquinolin-6-yl)-N-cyclopropyl-4-methylbenzamide]
25.1 | Cc1ccc(C(=O)NC2CC2)cc1-c1ccc2c(=O)n(CC3CC3)cc(C(=O)NCCCN3CCCC3)c2c1 [Example 44, 6-(5-(Cyclopropylcarbamoyl)-2-methylphenyl)-2-(cyclopropylmethyl)-1-oxo-N-(3-(pyrrolidin-1-yl)propyl)-1,2-dihydroisoquinoline-4-carboxamide]
0.794 | Cc1ccc(C(=O)NC2CC2)cc1-c1ccc2c(=O)n(Cc3ccc(C(=O)NCCN4CCCC4)cc3)ccc2c1 [Example 22, N-Cyclopropyl-4-methyl-3-(1-oxo-2-(4-(2-(pyrrolidin-1-yl)ethylcarbamoyl)benzyl)-1,2-dihydroisoquinolin-6-yl)benzamide]
1.58 | Cc1ccc(C(=O)NC2CC2)cc1-c1ccc2c(=O)n(CC3CC3)ccc2c1 [Example 122, N-Cyclopropyl-3-(2-cyclopropylmethyl-1-oxo-1,2-dihydro-isoquinolin-6-yl)-4-methylbenzamide]
0.316 | CN[C@@H]1CCN(Cc2cn(CC3CC3)c(=O)c3ccc(-c4cc(C(=O)NC5CC5)cc(F)c4C)cc23)C1 [Example 106, (R)—N-Cyclopropyl-3-(2-(cyclopropylmethyl)-4-((3-(methylamino)pyrrolidin-1-yl)methyl)-1-oxo-1,2-dihydroisoquinolin-6-yl)-5-fluoro-4-methylbenzamide]
0.0794 | Cc1c(F)cc(C(=O)NC2CC2)cc1-c1ccc2c(=O)n(CC3CC3)cc(CN3CCNC[C@H]3C)c2c1 [Example 86, (R)—N-Cyclopropyl-3-(2-(cyclopropylmethyl)-4-((2-methylpiperazin-1-yl)methyl)-1-oxo-1,2-dihydroisoquinolin-6-yl)-5-fluoro-4-methylbenzamide]
7.94 | Cc1ccc(C(=O)NC2CC2)cc1-c1ccc2c(=O)n(Cc3ccncc3)cc(C(=O)N3CCC(N(C)C)CC3)c2c1 [Example 56, N-Cyclopropyl-3-(4-(4-(dimethylamino)piperidine-1-carbonyl)-1-oxo-2-(pyridin-4-ylmethyl)-1,2-dihydroisoquinolin-6-yl)-4-methylbenzamide]
1.26 | Cc1ccc(C(=O)NC2CC2)cc1-c1ccc2c(=O)n(CC3CC3)cc(C(=O)N3CCC(N)CC3)c2c1 [Example 42, 3-(4-(4-Aminopiperidine-1-carbonyl)-2-(cyclopropylmethyl)-1-oxo-1,2-dihydroisoquinolin-6-yl)-N-cyclopropyl-4-methylbenzamide]
10 | Cc1ccc(C(=O)NC2CC2)cc1-c1ccc2c(=O)n(Cc3ccccc3)cc(CN3CCCC3)c2c1 [Example 61, 3-(2-Benzyl-1-oxo-4-(pyrrolidin-1-ylmethyl)-1,2-dihydroisoquinolin-6-yl)-N-cyclopropyl-4-methylbenzamide]
0.0398 | Cc1c(F)cc(C(=O)NC2CC2)cc1-c1ccc2c(=O)n(CC3CC3)cc(CN3CCN[C@@H](CO)C3)c2c1 [Example 85, (R)—N-Cyclopropyl-3-(2-(cyclopropylmethyl)-4-((3-(hydroxymethyl)piperazin-1-yl)methyl)-1-oxo-1,2-dihydroisoquinolin-6-yl)-5-fluoro-4-methylbenzamide]
0.158 | Cc1c(F)cc(C(=O)NC2CC2)cc1-c1ccc2c(=O)n(CC3CC3)cc(CN3CCCN(CCO)CC3)c2c1 [Example 78, N-Cyclopropyl-3-(2-(cyclopropylmethyl)-4-((4-(2-hydroxyethyl)-1,4-diazepan-1-yl)methyl)-1-oxo-1,2-dihydroisoquinolin-6-yl)-5-fluoro-4-methylbenzamide]
1 | Cc1ccc(C(=O)NC2CC2)cc1-c1ccc2c(=O)n(CC3CC3)cc(CN3CCN[C@@H](C)C3)c2c1 [Example 63, (S)—N-Cyclopropyl-3-(2-(cyclopropylmethyl)-4-((3-methylpiperazin-1-yl)methyl)-1-oxo-1,2-dihydroisoquinolin-6-yl)-4-methylbenzamide]
0.2 | CONC(=O)c1ccc(C)c(-c2ccc3c(=O)n(Cc4ccc(C5=CCNCC5)cc4)ccc3c2)c1 [Example 9, N-Methoxy-4-methyl-3-[1-oxo-2-[4-(1,2,3,6-tetrahydro-pyridin-4-yl)-benzyl]-1,2-dihydro-isoquinolin-6-yl]-benzamide]
1 | Cc1ccc(C(=O)NC2CC2)cc1-c1ccc2c(=O)n(Cc3ccc(OCCN(C)C)nc3)ccc2c1 [Example 30, N-Cyclopropyl-3-(2-((6-(2-(dimethylamino)ethoxy)pyridin-3-yl)methyl)-1-oxo-1,2-dihydroisoquinolin-6-yl)-4-methylbenzamide]
